From the supplement of paper PMC10307832

Tests used:
Assay in all cases: relative viability (nuclei count vs DMSO), 5 days (fraction); higher = more cells survive
RU-SKI 43 = compound: CC[C@@H](C)CNCC(=O)N1CCC2=C([C@@H]1COC3=CC=CC(=C3)C)C=CS2 [RU-SKI 43]
Procedure, shortened: (§1)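 Lung cancer cell lines in 1536-well plates were exposed by pinning to five library-drug doses (not always all listed) √10 apart, following an overnight hold at 37 °C. MetaXpress counted Hoechst-stained nuclei from 4× images taken after 5 days without medium change. Viability is the median ratio of treated-well to vehicle-well nuclei across plates. Plates required control CV below 25% and at least one doubling.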

Irinotecan = compound: CCc1c2c(nc3ccc(OC(=O)N4CCC(N5CCCCC5)CC4)cc13)-c1cc3c(c(=O)n1C2)COC(=O)[C@]3(O)CC [Irinotecan]
Procedure, shortened: as §1

MK-8033 = compound: Cn1cc(-c2cnc3ccc4ccc(CS(=O)(=O)NCc5ccccn5)cc4c(=O)c3c2)cn1 [MK-8033]
Procedure, shortened: as §1

RU-SKI 43 + Alpelisib = compound: CC[C@@H](C)CNCC(=O)N1CCC2=C([C@@H]1COC3=CC=CC(=C3)C)C=CS2 [RU-SKI 43] + Cc1nc(NC(=O)N2CCC[C@H]2C(N)=O)sc1-c1ccnc(C(C)(C)C(F)(F)F)c1 [Alpelisib] (partner 2 µM)
Procedure, shortened: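 Cells from lung cancer lines were seeded into 1536-well plates and, one day later, dosed by pin tool. Treatments were either a single drug or a fixed dose of an anchor drug with five library-drug doses (not always all listed) in √10 steps. After 5 days, nuclei were stained in a one-step fixation (final 0.05% Triton X-100, 1% formaldehyde, 1 ug/ml Hoechst) and counted on 4× images, and relative viability is the treated-to-vehicle nuclei ratio, as the median of duplicate plates.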

Row | Cell Line | relative viability (RU-SKI 43; 0.1 µM) | relative viability (RU-SKI 43; 0.3162 µM) | relative viability (RU-SKI 43; 1 µM) | relative viability (RU-SKI 43; 3.162 µM) | relative viability (RU-SKI 43; 10 µM) | relative viability (Irinotecan; 0.6325 µM) | relative viability (Irinotecan; 2 µM) | relative viability (Irinotecan; 6.325 µM) | relative viability (Irinotecan; 20 µM) | relative viability (MK-8033; 0.02 µM) | relative viability (MK-8033; 0.2 µM) | relative viability (MK-8033; 0.6325 µM) | relative viability (MK-8033; 2 µM) | relative viability (RU-SKI 43 + Alpelisib; first compound 0.1 µM) | relative viability (RU-SKI 43 + Alpelisib; first compound 0.3162 µM) | relative viability (RU-SKI 43 + Alpelisib; first compound 1 µM) | relative viability (RU-SKI 43 + Alpelisib; first compound 3.162 µM) | relative viability (RU-SKI 43 + Alpelisib; first compound 10 µM) | relative viability (MK-8033; 0.06325 µM)
1 | PC-3 [JPC-3] | 1.04 | 1.01 | 1.05 | 0.983 | 0.994 | 0.564 | 0.833 | 0.529 | 0.357 | 0.977 | 0.921 | 1.06 | 1 | 0.988 | 1.03 | 1.11 | 1.08 | 0.998 | –
2 | SK-LU-1 | 0.953 | 1.29 | 1.11 | 1.15 | 1.05 | 0.719 | 0.575 | 0.358 | 0.276 | 1.05 | 0.878 | 0.997 | 1.04 | 0.931 | 1.31 | 1.25 | 1.13 | 1.01 | 1.05
3 | NCI-H1975 | 1.07 | 1.25 | 1.05 | 1.01 | 0.922 | 0.894 | 1.04 | 0.622 | 0.196 | 0.892 | 0.862 | 0.854 | 0.931 | 0.692 | 0.717 | 0.806 | 0.66 | 0.583 | 0.905
4 | HARA | 1.06 | 0.959 | 1.05 | 1.06 | 0.84 | 0.612 | 0.618 | 0.308 | 0.245 | 0.97 | 0.87 | 0.806 | 0.944 | 0.762 | 0.729 | 0.843 | 0.69 | 0.733 | 0.769
5 | H3255 | 1.02 | 0.995 | 1.11 | 0.995 | 0.885 | 0.743 | 0.684 | 0.392 | 0.379 | 1.06 | 0.942 | 0.794 | 0.942 | 0.719 | 0.834 | 0.773 | 0.725 | 0.686 | 0.853
6 | NCI-H727 | 0.838 | 0.989 | 1.08 | 1.1 | 0.811 | 0.516 | 0.565 | 0.531 | 0.54 | 0.877 | 0.911 | 1.13 | 0.97 | 0.571 | 0.477 | 0.729 | 0.249 | 0.479 | 0.691
7 | NCI-H1299 | 1.02 | 1.09 | 1.05 | 1.04 | 0.946 | 0.799 | 0.738 | 0.489 | 0.283 | 1.01 | 0.994 | 0.985 | 1 | 1.18 | 1.14 | 1.03 | 1.08 | 1.15 | 1.02
8 | EKVX | 0.873 | 0.971 | 0.977 | 0.994 | 0.965 | 0.711 | 0.804 | 0.504 | 0.261 | 0.993 | 0.906 | 0.935 | 1.03 | 0.79 | 0.949 | 0.828 | 0.946 | 0.839 | 0.858
9 | NCI-H1666 | 0.953 | 0.954 | 0.967 | 1.04 | 0.865 | 0.889 | 0.763 | 0.573 | 0.459 | 0.984 | 0.945 | 0.947 | 0.96 | 1.09 | 1.09 | 0.966 | 0.789 | 0.582 | 0.94
10 | NCI-H1915 | 1.06 | 1.11 | 1.08 | 1 | 1.02 | 0.353 | 0.475 | 0.224 | 0.214 | 1 | 0.963 | 1.02 | 0.959 | 0.991 | 1.14 | 1.12 | 1.05 | 1.04 | 0.916
11 | HCC-366 | 1.11 | 1.23 | 1.05 | 1.08 | 0.979 | 0.591 | 0.615 | 0.093 | 0.081 | 1.03 | 0.977 | 1.02 | 1.06 | 0.439 | 0.53 | 0.438 | 0.572 | 0.355 | 1.03
12 | EPLC-272H | 1 | 0.905 | 1.07 | 0.857 | 0.915 | 0.419 | 0.665 | 0.282 | 0.243 | 0.923 | 0.85 | 0.991 | 0.76 | 1.12 | 0.968 | 0.987 | – | 0.948 | 0.745
13 | NCI-H1792 | 0.844 | 1.08 | 1.77 | 0.889 | 1.03 | 0.862 | 0.933 | 0.393 | 0.354 | 1.22 | 0.804 | 0.9 | 0.805 | 0.574 | 1.1 | 0.736 | 0.886 | 0.735 | 0.958
14 | RERF-LC-KJ | 1.04 | 1.12 | 1.05 | 1.01 | 0.937 | 0.871 | 0.839 | 0.542 | 0.373 | 0.999 | 0.934 | 1.01 | 0.948 | 0.826 | 0.98 | 0.734 | 0.821 | 0.802 | 1.01
15 | IA-LM | 1.1 | 1.02 | 1.15 | 1.07 | 0.98 | 0.616 | 0.419 | 0.208 | 0.0921 | 0.886 | 0.933 | 0.93 | 0.952 | 1.02 | 0.795 | 0.902 | 0.91 | 0.694 | 0.933
16 | NCI-H2126 | 1.01 | 0.99 | 1.05 | 1.04 | 0.985 | – | 1.07 | 0.552 | 0.387 | 0.978 | 0.911 | 0.976 | 1.02 | 0.769 | 0.82 | 0.825 | 0.831 | 0.727 | 0.901
17 | ABC-1 | 1.06 | 0.985 | 1.33 | 0.984 | 0.85 | – | 0.956 | 0.496 | 0.21 | 0.972 | 0.886 | 0.965 | 1.04 | 1.02 | 1.13 | 0.895 | 0.986 | 1.06 | 0.861
18 | NCI-H1355 | 1.02 | 1.12 | 1.08 | 1.04 | 0.921 | – | 0.948 | 0.426 | 0.3 | 1.02 | 0.914 | 1.01 | 0.992 | 0.826 | 0.877 | 0.924 | 0.956 | 0.921 | 0.894
19 | A-427 | 1.09 | 1.02 | 1.12 | 0.94 | 1.03 | – | 0.844 | 0.299 | 0.21 | 1.05 | 0.877 | 1.06 | 0.96 | 1.13 | 1.16 | 1.18 | – | 1.02 | 0.963
20 | NCI-H3122 | 1.06 | 1.15 | 1.08 | 1.09 | 0.983 | 0.97 | 0.625 | 0.224 | 0.176 | 0.981 | 0.931 | 0.985 | 1.01 | 0.771 | 0.7 | 0.743 | 0.935 | 0.734 | 1.03
21 | NCI-H1437 | 1.07 | 1.04 | 1.14 | 1.04 | 0.986 | 0.824 | 0.719 | 0.426 | 0.289 | 0.964 | 0.919 | 1.01 | 0.93 | 0.945 | 1.26 | 0.964 | 1.07 | 0.921 | 0.972
22 | COR-L23 | 0.943 | 1.14 | 1.16 | 1.16 | 0.921 | 0.412 | 0.419 | 0.215 | 0.144 | 1.01 | 0.947 | 1.06 | 0.981 | 0.87 | 0.657 | 0.725 | 0.757 | 0.815 | 1.02
23 | NCI-H1651 | 0.931 | 1.01 | 1.08 | 1.09 | 0.927 | 0.676 | 0.779 | 0.458 | 0.172 | 1.01 | 0.934 | 1.06 | 0.971 | 1.08 | 1.25 | 0.953 | 0.926 | 0.936 | 0.944
24 | NCI-H2087 | 1.06 | 1.11 | 1.17 | 0.995 | 0.933 | 0.406 | 0.496 | 0.187 | 0.203 | 1.2 | 0.953 | 1.08 | 1.1 | 1 | 1.4 | 1.12 | 1.11 | 0.788 | 1.02
25 | A549 | 1 | 1.12 | 1.13 | 0.939 | 0.9 | 0.943 | 0.78 | 0.2 | 0.0915 | 0.996 | 0.93 | 0.913 | 0.943 | 0.991 | 0.957 | 0.738 | 0.772 | 0.621 | 0.932
26 | NCI-H661 | 0.92 | 1.05 | 1.06 | 0.99 | 0.943 | 1.05 | 0.838 | 0.52 | 0.454 | 0.994 | 1.01 | 1.01 | 0.993 | 0.647 | 0.668 | 0.846 | 0.464 | 0.404 | 0.849
27 | LXF-289 | 1.05 | 1.08 | 1.02 | 1.1 | 0.999 | 0.892 | 0.965 | 0.659 | 0.265 | 1.02 | 0.955 | 1.16 | 0.995 | 1.02 | 0.96 | 1.1 | 1.13 | 0.963 | 0.983
28 | LC-2-ad | 0.967 | 1.02 | 1.16 | 0.963 | 0.932 | 0.47 | 0.492 | 0.299 | 0.191 | 0.953 | 0.936 | 1 | 0.927 | 0.836 | 1.02 | 0.932 | 0.924 | 0.779 | 0.938
29 | NCI-H2085 | 0.981 | 1.01 | 1.02 | 0.975 | 0.927 | 0.824 | 0.909 | 0.75 | 0.529 | 0.931 | 0.959 | 0.942 | 0.984 | 0.93 | 1.02 | 1.09 | 1.01 | 0.845 | 0.987
